Test results published in patent US10821097B2, “DBH inhibitors for treating or preventing memory loss” (Brandeis University, priority 2015, dated 2020).

Key:
LC = assay: event arena memory test in KORD mice with the LC inhibited by SALB; format: in vivo; conditions: SALB subcutaneously 10 minutes before encoding trial
DBH [1] = conditions: in vivo; cited from earlier work
DBH [2] = molecular target: T1, DBH (Rattus norvegicus, UniProt Q05754); conditions: cited from earlier work; for blood-brain barrier crossing, indicated by effect of injections on brain dopamine levels: Antabuse 100 mg/kg, Nepicastat 50 mg/kg, intraperitoneal
T1 construct: In rat studies, Antabuse (100 mg/kg) and Nepicastat (50 mg/kg) were injected intraperitoneally; host or cells: rat, in vivo (endogenous enzyme)
T1 sequence (Q05754 1-620): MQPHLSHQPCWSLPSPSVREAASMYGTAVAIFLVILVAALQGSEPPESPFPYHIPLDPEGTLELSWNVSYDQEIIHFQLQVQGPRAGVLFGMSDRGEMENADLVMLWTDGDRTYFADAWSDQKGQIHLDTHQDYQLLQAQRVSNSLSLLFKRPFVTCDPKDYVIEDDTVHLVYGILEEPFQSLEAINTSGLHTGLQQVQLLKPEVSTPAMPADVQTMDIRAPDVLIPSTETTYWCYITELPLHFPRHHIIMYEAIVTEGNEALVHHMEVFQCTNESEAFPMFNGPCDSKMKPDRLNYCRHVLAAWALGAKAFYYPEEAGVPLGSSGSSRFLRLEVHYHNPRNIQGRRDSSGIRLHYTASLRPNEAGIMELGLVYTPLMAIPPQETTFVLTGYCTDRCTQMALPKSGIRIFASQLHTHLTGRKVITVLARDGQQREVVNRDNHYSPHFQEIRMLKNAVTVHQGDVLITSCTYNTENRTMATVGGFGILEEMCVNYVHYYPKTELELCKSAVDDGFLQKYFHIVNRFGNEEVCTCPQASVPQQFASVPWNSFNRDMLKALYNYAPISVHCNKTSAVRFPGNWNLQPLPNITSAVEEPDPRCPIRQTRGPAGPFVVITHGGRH

D1R = assay: light-stimulated dopamine release from LC axons, fEPSP in CA1 of hippocampal slices; format: cell-based; conditions: 10 uM, n=4, Schaffer collateral stimulation
From the text: The chemogenetic approach allows the acute memory deficits produced by graded decrease in LC function to be measured. This model then provides a rigorous and rapid screening method to determine whether the resulting memory deficits can be reversed by agents that enhance dopamine release (with or without noradrenaline stimulants). Results in FIG. 2 document the role of LC axons in producing functionally important dopamine release. The experiments were done in CA1 using synaptic stimulation of Schaffer collaterals to measure synaptic strength. FIG. 2, left: brief light stimulation of the hippocampus (arrow) produces a long-lasting enhancement of the fEPSP (normalized increase in charge) (n=5). This light-stimulated release of dopamine replicates the effect of direct application of dopamine (Huang and Kandel, 1995). […] Stimulation protocol: three sets of ˜18 Hz stimulation (5 msec light pulses)=a total of 60 pulses/set; 1 minute between sets. The LC was injected in vivo with AAV virus that produced channel-rhodopsin in cells containing tyrosine hydroxylase, an enzyme in the dopamine and noradrenaline synthesis pathway (see FIG. 1). The selective expression in noradrenergic cells in the LC is due to Cre expression driven by a tyrosine hydroxylase promoter. […] The response of CA1 pyramidal cells was measured by the field EPSP (fEPSP). […]

[3] = up to 120 mg/day; cited from earlier work
[4] = IP, suspension in sterile saline

COC(=O)[C@@H]1C[C@H](O)C(=O)[C@H]2[C@@]1(C)CC[C@H]1C(=O)O[C@H](c3ccoc3)C[C@]21C [SALB, salvinorin B]
24 hr memory (LC): strongly reduce

CCN(CC)C(=S)SSC(=S)N(CC)CC [Disulfiram, 1,1′,1″,1′″-[disulfanediylbis(carbonothioylnitrilo)]tetraethane]
effect on dopamine concentration and/or dopamine release (DBH [1]): increase the concentration of dopamine and/or increase dopamine release | blood-brain barrier crossing, indicated by effect of injections on brain dopamine levels (DBH [2]): cross the blood-brain barrier | highest effective dose that didn't affect operant responses (DBH [2]; [4]): 100 mg/kg | lowest effective concentration (DBH [2]; [4]): 10 mg/kg

CN1CCc2cc(Cl)c(O)cc2[C@H]2c3ccccc3CC[C@@H]21 [SCH39166]
enhancement of the fEPSP by light stimulation of LC axons in the presence of the antagonist (D1R): no enhancement

NCc1c[nH]c(=S)n1[C@H]1CCc2c(F)cc(F)cc2C1 [Nepicastat, 5-(aminomethyl)-1-[(2S)-5,7-difluoro-1,2,3,4-tetrahydronaphthalen-2-yl]-1,3-dihydro-2H-imidazole-2-thione]
effect on dopamine concentration and/or dopamine release (DBH [1]): increase the concentration of dopamine and/or increase dopamine release | tolerability [3]: well tolerated | blood-brain barrier crossing, indicated by effect of injections on brain dopamine levels (DBH [2]): cross the blood-brain barrier | dose reported to match the 100 mg/kg dose of Antabuse on DBH (DBH [2]; IP): 50 mg/kg
